The results in this text go back to patent publication US11155517B2, “4-substituted phenylamine derivatives and their use to protect crops by fighting undesired phytopathogenic micoorganisms” (PI INDUSTRIES LTD., priority 2016, dated 2021).

Common to all, as to assay type: cell-based
The test system of one test is Rhizoctonia solani. Put plainly: Rhizoctonia solani (rice sheath blight/potato black scurf) in vitro test, radial growth on Potato Dextrose Agar. Conditions: 168 h, 300 ppm, seven days, 25° C., read-out: % control compared to the untreated check (radial growth).
In another test the test system is Septoria lycopersici. Put plainly: Septoria lycopersici (leaf spot of tomato) in vitro test, radial growth on Potato Dextrose Agar. Conditions: 168 h, seven days, 25° C., read-out: % control compared to the untreated check (radial growth).
A further test relates to Botrytis cinerea. Put plainly: Botrytis cinerea (gray mold) in vitro test, radial growth on Potato Dextrose Agar. Conditions: 168 h, 300 ppm, seven days, 22° C., read-out: % (control) compared to the untreated check (radial growth).
In the next test the test system is Pyricularia oryzae. Put plainly: microbe, parasite or virus in culture. Conditions: 168 h, read-out: % control compared to the untreated check (radial growth).
For the next test, the system named is Colletotrichum capsici. Put plainly: Colletotrichum capsici (anthracnose) in vitro test, radial growth on Potato Dextrose Agar. As to conditions: Colletotrichum truncatum, 168 h; 300 ppm; seven days, 25° C.; read-out: % control compared to the untreated check (radial growth).
In a further test the test system is Alternaria solani. As to the kind of experiment: Alternaria solani (early blight of tomato/potato) in vitro test, radial growth on Potato Dextrose Agar. As to conditions: 168 h, 300 ppm, seven days, 25° C., read-out: % control compared to the untreated check (radial growth).
The test system of a further test is Fusarium culmorum. Put plainly: Fusarium culmorum (foot rot of cereals) in vitro test, radial growth on Potato Dextrose Agar. Conditions: Fusarium culmorum, 168 h, read-out: % control compared to the untreated check (radial growth).

As to `CCN(C)C=Nc1cc(F)c(Cc2ccccc2C)cc1C` [Compound 186, N-ethyl-N′-(5-fluoro-2-methyl-4-(2-methylbenzyl)phenyl)-N-methylformimidamide], the inhibition of growth at 300 ppm is above 80% in the test on Rhizoctonia solani; above 70% in the test with Septoria lycopersici; above 80% in the test on Botrytis cinerea; above 75% in the test on Pyricularia oryzae; above 80% in the test with Colletotrichum capsici; above 75% in the test with Alternaria solani. The inhibition of growth at 300 ppm with Fusarium culmorum was 75%.
Turning to `CCN(C)C=Nc1cc(C)c(Cc2cccc(F)c2)cc1C1CC1` [Compound 197, N′-(2-cyclopropyl-4-(3-fluorobenzyl)-5-methylphenyl)-N-ethyl-N-methylformimidamide], the inhibition of growth at 300 ppm was above 80% in the test on Rhizoctonia solani; above 70% with Septoria lycopersici; above 80% with Botrytis cinerea; above 75% in the test on Pyricularia oryzae; above 80% in the test with Colletotrichum capsici; above 75% in the test with Alternaria solani. Also, the inhibition of growth at 300 ppm in the test on Fusarium culmorum came out at 75%.
As for `CCN(C)C=Nc1cc(C)c(Cc2ccccc2C)cc1F` [Compound 212, N-ethyl-N′-(2-fluoro-5-methyl-4-(2-methylbenzyl)phenyl)-N-methylformimidamide], the inhibition of growth at 300 ppm with Rhizoctonia solani is above 80%; in the test on Septoria lycopersici, above 70%; in the test on Botrytis cinerea, above 80%; in the test with Pyricularia oryzae, above 75%; in the test on Colletotrichum capsici, above 80%; in the test on Alternaria solani, above 75%. The inhibition of growth at 300 ppm in the test with Fusarium culmorum is 75%.
For `CCN(C)C=Nc1cc(F)c(Cc2cccc(Cl)c2)cc1C` [Compound 173, N′-(4-(3-chlorobenzyl)-5-fluoro-2-methylphenyl)-N-ethyl-N-methylformimidamide], the inhibition of growth at 300 ppm with Rhizoctonia solani was above 80%; in the test with Septoria lycopersici, above 70%; in the test with Botrytis cinerea, above 80%; with Pyricularia oryzae, above 75%; with Colletotrichum capsici, above 80%; in the test with Alternaria solani, above 75%. In addition, the inhibition of growth at 300 ppm in the test with Fusarium culmorum amounted to 75%.
In the case of `CCN(C)C=Nc1cc(C)c(Cc2ccc(Cl)cc2Cl)cc1C` [Compound 162, N′-(4-(2,4-dichlorobenzyl)-2,5-dimethylphenyl)-N-ethyl-N-methylformimidamide], the inhibition of growth at 300 ppm in the test on Rhizoctonia solani is above 80%; with Septoria lycopersici it was above 70%; with Botrytis cinerea, above 80%; in the test with Pyricularia oryzae it was above 75%; in the test on Colletotrichum capsici, above 80%; in the test on Alternaria solani it was above 75%. Besides, in the test with Fusarium culmorum, the inhibition of growth at 300 ppm worked out at 75%.
Regarding `CCN(C)C=Nc1cc(C)c(Cc2ccc(Cl)c(OC(F)(F)F)c2)cc1C` [Compound 145, N′-(4-(4-chloro-3-(trifluoromethoxy)benzyl)-2,5-dimethylphenyl)-N-ethyl-N-methylformimidamide], the inhibition of growth at 300 ppm with Rhizoctonia solani was above 80%; with Septoria lycopersici, above 70%; in the test with Botrytis cinerea, above 80%; in the test with Pyricularia oryzae, above 75%; with Colletotrichum capsici, above 80%; with Alternaria solani, above 75%. Besides, the inhibition of growth at 300 ppm in the test with Fusarium culmorum is 75%.
On to `CCN(C)C=Nc1cc(C)c(Cc2ccc(C(F)(F)F)c(F)c2)cc1C` [Compound 158, N-ethyl-N′-(4-(3-fluoro-4-(trifluoromethyl)benzyl)-2,5-dimethylphenyl)-N-methylformimidamide], for which the inhibition of growth at 300 ppm in the test on Rhizoctonia solani is above 80%; in the test on Septoria lycopersici, above 70%; in the test with Botrytis cinerea, above 80%; in the test on Pyricularia oryzae it was above 75%; in the test with Colletotrichum capsici, above 80%; in the test with Alternaria solani, above 75%. Moreover, the inhibition of growth at 300 ppm in the test on Fusarium culmorum was found to be 75%.
